Patent US7759344B2, “Bis-aryl amide derivatives and methods of use” (priority 2007, dated 2010)

The molecules below were run against T1, c-Met (Homo sapiens, UniProt P08581) (assay: c-Met Receptor Assay (HTRF kinase assay with GST-cMet (P) enzyme, gastrin and ATP)).
T1 construct: A PCR product covering residues 1058-1365 of c-Met (c-Met kinase domain) is generated; made in house; host or cells: Baculovirus cells (baculovirus/insect-cell expression)
Format: biochemical
Protocol: Cloning, Expression and Purification of c-Met Kinase Domain
Alternative purification of human GST-cMET from Baculovirus cells
The resin is washed with 10 column volumes (100 mL) of Lysis Buffer. […] The elution is collected as 15 mL fractions. Aliquots of the elution fractions are run on SDS PAGE (12% Tris Glycine gel, Invitrogen, #EC6005BOX). The gel is stained with 0.25% Coomassie Blue stain. Fractions with GST-cMET are concentrated with a Vivaspin 20 mL Concentrator (#VS2002; […]) to a final volume less than 2.0 ml. […] The GST-cMET is eluted with an isocratic run of the above buffer, with the eluent collected in 1.0 mL fractions. Fractions with significant OD280 readings are run on another 12% Tris Glycine gel. The peak tubes with GST-cMET are pooled and the OD280 is read with the column buffer listed above as the blank buffer. • Phosphorylation of the purified GST-cMET is performed by incubating the protein for 3 h at RT with the following:
After incubation, the solution is concentrated in a Vivaspin 20 ml Concentrator to a volume less than 2.00 ml. The solution is applied to the same Superdex 75 16/60 column used above after re-equilibration. The GST-cMET is eluted as described above. The elution fractions corresponding to the first eluted peak on the chromatogram are run on a 12% Tris Glycine gel, as above, to identify the fractions with GST-cMET. Fractions are pooled and the OD280 is read with the column buffer used as the blank.
A Kinase reaction Buffer is prepared as follows:
When the assay is carried out, freshly add:
The HTRF Buffer Contains: • 50 mM Tris-HCl (pH 7.5), 100 mM NaCl, 0.1% BSA, 0.05% Tween 20,5mM EDTA
Dilute GST-cMet (P) Enzyme in Kinase Buffer as Follows:
2. Assay Plate Preparation:
Then incubate the plate at RT for 30 min.
3. Prepare Gastrin and ATP working solution in kinase reaction buffer as follows:
Use Biomek FX to add 20 μl ATP and Gastrin working solution to the assay plate to start reaction, incubate the plate at RT for 1 h. 4. Transfer 5 μL reaction product at the end of 1 h into 80 μL HTRF buffer in black plate

T1 sequence (P08581 1058-1365): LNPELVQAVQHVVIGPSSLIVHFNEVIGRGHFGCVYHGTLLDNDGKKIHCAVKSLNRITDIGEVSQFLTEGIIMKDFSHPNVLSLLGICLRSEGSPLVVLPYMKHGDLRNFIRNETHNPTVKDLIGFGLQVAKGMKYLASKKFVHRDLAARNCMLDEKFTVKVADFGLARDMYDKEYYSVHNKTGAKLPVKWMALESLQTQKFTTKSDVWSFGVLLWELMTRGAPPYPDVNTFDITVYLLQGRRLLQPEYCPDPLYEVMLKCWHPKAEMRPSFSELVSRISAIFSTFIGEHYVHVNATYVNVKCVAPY

| SMILES | Ki |
| --- | --- |
| Cc1c(C(=O)Nc2ccc(-c3cccc4c(N)nccc34)c(F)c2)c(=O)n(-c2ccccc2)n1C [Example 2, N-(4-(1-amino-5-isoquinolinyl)-3-fluorophenyl)-1,5-dimethyl-3-oxo-2-phenyl-2,3-dihydro-1H-pyrazole-4-carboxamide] | 28 nM |
| Cc1c(C(=O)Nc2ccc(-c3cccc4c(N)nccc34)c(F)c2)c(=O)n(-c2ccccc2)n1CC(C)(C)O [Example 3, N-(4-(1-amino-5-isoquinolinyl)-3-fluorophenyl)-1-(2-hydroxy-2-methylpropyl)-5-methyl-3-oxo-2-phenyl-2,3-dihydro-1H-pyrazole-4-carboxamide] | 56 nM |
| Cc1c(C(=O)Nc2ccc(-c3cccc4cnccc34)c(F)c2)c(=O)n(-c2ccccc2)n1C [Example 4, N-(3-fluoro-4-(5-isoquinolinyl)phenyl)-1,5-dimethyl-3-oxo-2-phenyl-2,3-dihydro-1H-pyrazole-4-carboxamide] | 73 nM |
| Cc1c(C(=O)Nc2ccc(-c3cccc4[nH]nc(N)c34)c(F)c2)c(=O)n(-c2ccccc2)n1CC(C)(C)O [Example 5, N-(4-(3-amino-1H-indazol-4-yl)-3-fluorophenyl)-1-(2-hydroxy-2-methylpropyl)-5-methyl-3-oxo-2-phenyl-2,3-dihydro-1H-pyrazole-4-carboxamide] | 85 nM |
| Cc1c(C(=O)Nc2ccc(-c3cccc4[nH]nc(N)c34)cc2)c(=O)n(-c2ccccc2)n1CC(C)(C)O [Example 8, N-(4-(3-amino-1H-indazol-4-yl)phenyl)-1-(2-hydroxy-2-methylpropyl)-5-methyl-3-oxo-2-phenyl-2,3-dihydro-1H-pyrazole-4-carboxamide] | 252 nM |
| Cc1c(C(=O)Nc2ccc(-c3nncc4cnccc34)c(F)c2)c(=O)n(-c2ccccc2)n1C [Example 9, N-(3-fluoro-4-pyrido[3,4-d]pyridazin-1-ylphenyl)-1,5-dimethyl-3-oxo-2-phenyl-2,3-dihydro-1H-pyrazole-4-carboxamide] | 2380 nM |
| Cc1c(C(=O)Nc2ccc(-c3cccc4cnccc34)c(F)c2)c(=O)n(-c2ccccc2)n1C[C@H](C)O [Example 11, N-(3-fluoro-4-(isoquinolin-5-yl)phenyl)-1-((S)-2-hydroxypropyl)-5-methyl-3-oxo-2-phenyl-2,3-dihydro-1H-pyrazole-4-carboxamide] | 47 nM |
| Cc1c(C(=O)Nc2ccc(-c3cccc4c(NCCCN5CCOCC5)nccc34)cc2)c(=O)n(-c2ccccc2)n1CC(C)(C)O [Example 13, 1-(2-hydroxy-2-methylpropyl)-5-methyl-N-(4-(1-(3-morpholinopropylamino)-isoquinolin-5-yl)phenyl)-3-oxo-2-phenyl-2,3-dihydro-1H-pyrazole-4-carboxamide] | 3290 nM |
| Cc1c(C(=O)Nc2ccc(-c3cccc4c(N(C)CCN(C)C)nccc34)cc2)c(=O)n(-c2ccccc2)n1CC(C)(C)O [Example 15, N-(4-(1-((2-(dimethylamino)ethyl)(methyl)amino)isoquinolin-5-yl)phenyl)-1-(2-hydroxy-2-methylpropyl)-5-methyl-3-oxo-2-phenyl-2,3-dihydro-1H-pyrazole-4-carboxamide] | > 6670 nM |
| Cc1c(C(=O)Nc2ccc(-c3cccc4c(N(C)CCCN(C)C)nccc34)cc2)c(=O)n(-c2ccccc2)n1CC(C)(C)O [Example 16, N-(4-(1-((3-(dimethylamino)propyl)(methyl)amino)isoquinolin-5-yl)phenyl)-1-(2-hydroxy-2-methylpropyl)-5-methyl-3-oxo-2-phenyl-2,3-dihydro-1H-pyrazole-4-carboxamide] | 1450 nM |

Continued, values first:

| Ki | SMILES |
| --- | --- |
| 21 nM | Cc1c(C(=O)Nc2ccc(-c3cccc4[nH]nc(N)c34)c(F)c2)c(=O)n(-c2ccccc2)n1C [Example 1, N-(4-(3-amino-1H-indazol-4-yl)-3-fluorophenyl)-1,5-dimethyl-3-oxo-2-phenyl-2,3-dihydro-1H-pyrazole-4-carboxamide] |
| 142 nM | Cc1c(C(=O)Nc2ccc(-c3cccc4cnccc34)c(F)c2)c(=O)n(-c2ccccc2)n1CC(C)(C)O [Example 6, N-(3-fluoro-4-(5-isoquinolinyl)phenyl)-1-(2-hydroxy-2-methylpropyl)-5-methyl-3-oxo-2-phenyl-2,3-dihydro-1H-pyrazole-4-carboxamide] |
| 156 nM | Cc1c(C(=O)Nc2ccc(-c3cccc4cnccc34)cc2F)c(=O)n(-c2ccccc2)n1CC(C)(C)O [Example 7, N-(2-fluoro-4-(5-isoquinolinyl)phenyl)-1-(2-hydroxy-2-methylpropyl)-5-methyl-3-oxo-2-phenyl-2,3-dihydro-1H-pyrazole-4-carboxamide] |
| 373 nM | Cc1cc(NC(=O)c2c(C)n(CC(C)(C)O)n(-c3ccccc3)c2=O)ccc1-c1cccc2cnccc12 [Example 10, 1-(2-Hydroxy-2-methylpropyl)-N-(4-(5-isoquinolinyl)-3-methylphenyl)-5-methyl-3-oxo-2-phenyl-2,3-dihydro-1H-pyrazole-4-carboxamide] |
| 62 nM | Cc1c(C(=O)Nc2ccc(-c3cccc4cnccc34)c(F)c2)c(=O)n(-c2ccccc2)n1C[C@@H](C)O [Example 12, N-(3-fluoro-4-(isoquinolin-5-yl)phenyl)-1-((R)-2-hydroxypropyl)-5-methyl-3-oxo-2-phenyl-2,3-dihydro-1H-pyrazole-4-carboxamide] |
| > 20000 nM | Cc1c(C(=O)Nc2ccc(-c3cccc4c(NCCN(C)C)nccc34)cc2)c(=O)n(-c2ccccc2)n1CC(C)(C)O [Example 14, N-(4-(1-(2-(dimethylamino)ethylamino)isoquinolin-5-yl)phenyl)-1-(2-hydroxy-2-methylpropyl)-5-methyl-3-oxo-2-phenyl-2,3-dihydro-1H-pyrazole-4-carboxamide] |
